Measured values reported in ChEMBL document CHEMBL1131555 (Bioorg Med Chem Lett, 1998).
pKi: −log10 of the molar value.

How the values were obtained:
[1] = target: T1, Glucocorticoid receptor (Homo sapiens, UniProt P04150)
T1 sequence (P04150 whole entry): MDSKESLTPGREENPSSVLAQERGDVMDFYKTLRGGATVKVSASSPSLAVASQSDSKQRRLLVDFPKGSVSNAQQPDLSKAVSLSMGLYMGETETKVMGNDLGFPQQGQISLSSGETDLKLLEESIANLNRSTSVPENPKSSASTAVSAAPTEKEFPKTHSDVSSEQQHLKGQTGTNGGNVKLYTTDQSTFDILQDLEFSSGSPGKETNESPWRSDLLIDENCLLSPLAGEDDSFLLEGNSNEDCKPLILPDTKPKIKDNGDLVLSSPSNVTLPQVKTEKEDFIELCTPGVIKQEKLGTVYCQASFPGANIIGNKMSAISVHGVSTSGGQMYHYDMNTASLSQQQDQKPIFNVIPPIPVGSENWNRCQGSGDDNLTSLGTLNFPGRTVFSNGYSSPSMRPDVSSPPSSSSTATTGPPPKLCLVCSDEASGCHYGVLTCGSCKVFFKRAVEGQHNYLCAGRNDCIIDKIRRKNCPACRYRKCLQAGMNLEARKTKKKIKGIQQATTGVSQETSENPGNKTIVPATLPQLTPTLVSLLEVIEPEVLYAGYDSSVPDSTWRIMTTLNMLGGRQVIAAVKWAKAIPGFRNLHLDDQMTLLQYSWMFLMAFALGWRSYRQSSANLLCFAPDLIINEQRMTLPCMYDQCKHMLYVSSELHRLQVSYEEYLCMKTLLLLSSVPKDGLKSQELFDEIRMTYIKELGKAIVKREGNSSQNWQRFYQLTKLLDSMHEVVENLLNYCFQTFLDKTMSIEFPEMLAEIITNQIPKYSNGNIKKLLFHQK
Description: Displacement of Dexamethasone from human glucocorticoid receptor

[2] = target: T2, Androgen receptor (Homo sapiens, UniProt P10275)
T2 sequence (P10275 whole entry): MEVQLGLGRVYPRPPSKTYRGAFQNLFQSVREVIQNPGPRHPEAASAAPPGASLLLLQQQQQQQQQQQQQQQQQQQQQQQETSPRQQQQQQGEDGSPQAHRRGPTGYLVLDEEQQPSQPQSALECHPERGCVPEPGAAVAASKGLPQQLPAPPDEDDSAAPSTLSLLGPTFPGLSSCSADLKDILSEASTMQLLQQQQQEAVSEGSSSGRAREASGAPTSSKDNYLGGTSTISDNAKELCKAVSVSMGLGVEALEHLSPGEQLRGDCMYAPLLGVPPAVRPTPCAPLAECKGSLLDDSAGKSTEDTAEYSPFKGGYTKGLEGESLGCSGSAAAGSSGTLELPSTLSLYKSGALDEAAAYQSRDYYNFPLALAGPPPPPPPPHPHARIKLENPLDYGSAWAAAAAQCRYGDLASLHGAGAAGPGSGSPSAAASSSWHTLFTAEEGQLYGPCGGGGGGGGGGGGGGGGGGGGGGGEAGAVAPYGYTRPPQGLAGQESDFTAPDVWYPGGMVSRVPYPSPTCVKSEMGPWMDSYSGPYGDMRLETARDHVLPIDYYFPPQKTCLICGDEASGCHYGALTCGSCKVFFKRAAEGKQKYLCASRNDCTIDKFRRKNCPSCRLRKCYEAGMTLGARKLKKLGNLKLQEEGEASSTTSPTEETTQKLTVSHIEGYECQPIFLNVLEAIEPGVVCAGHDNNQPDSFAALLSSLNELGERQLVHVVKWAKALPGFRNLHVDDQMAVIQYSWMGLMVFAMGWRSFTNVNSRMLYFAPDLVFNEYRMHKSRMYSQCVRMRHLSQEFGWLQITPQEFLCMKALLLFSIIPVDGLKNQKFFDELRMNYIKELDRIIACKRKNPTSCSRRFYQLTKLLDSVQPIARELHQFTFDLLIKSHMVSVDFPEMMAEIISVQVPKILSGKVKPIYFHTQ
Description: Displacement of DHT from human androgen receptor

Row | SMILES | pKi [1] | pKi [2]
1 | CCCCC1Oc2ccc(Cl)cc2-c2ccc3c(c21)C(C)=CC(C)(C)N3 (stereo not given) | 6.40 | 6.05
2 | CC1=CC(C)(C)Nc2ccc3c(c21)C(CCC(C)C)Oc1ccccc1-3 (stereo not given) | 6.80 | 5.83
3 | CCCOC1Oc2ccc(Cl)cc2-c2ccc3c(c21)C(C)=CC(C)(C)N3 (stereo not given) | 6.59 | 6.16
4 | CCCCC1Oc2ccc(OC)cc2-c2ccc3c(c21)C(C)=CC(C)(C)N3 (stereo not given) | 6.89 | 6.11
5 | CCCCC1Oc2ccccc2-c2ccc3c(c21)C(C)=CC(C)(C)N3 (stereo not given) | 6.09 | 5.69

Further lines, results first:

Row | pKi [1] | pKi [2] | SMILES
6 | 7.29 | 6.04 | CCCCC1Oc2ccc(C)cc2-c2ccc3c(c21)C(C)=CC(C)(C)N3 (stereo not given)
7 | 6.13 | 6.34 | CC1=CC(C)(C)Nc2ccc3c(c21)C(C)Oc1ccc(F)cc1-3 (stereo not given)
8 | 6.44 | 6.21 | CC1=CC(C)(C)Nc2ccc3c(c21)C(C)Oc1ccc(Cl)cc1-3 (stereo not given)
9 | 6.27 | 5.88 | CCCCC1Oc2ccc(F)cc2-c2ccc3c(c21)C(C)=CC(C)(C)N3 (stereo not given)
10 | 6.05 | < 6.00 | C=CCC1Oc2ccccc2-c2ccc3c(c21)C(C)=CC(C)(C)N3 (stereo not given)
